From patent publication US8324264B1, “Inhibitors of bacterial biofilms and related methods” (Sequoia Sciences, Inc., priority 2011, dated 2012) come the findings set out here.

The subject of one assay is P. aeruginosa biofilms. Briefly: Biofilm growth assay (spreading biofilm on semi-solid agar), P. aeruginosa. Type of assay: cell-based. The following applies: biofilm growth assay, overnight 37° C., vs negative controls, Tables 1-5; for IC85: Pseudomonas aeruginosa, read-out: P. aeruginosa: concentration that reduces the area of the spreading biofilm by greater than or equal to 85%. Summed up: (§1)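 Values are compound concentrations (μg/ml) that cut the spreading-biofilm zone area by ≥85% relative to negative controls after overnight 37 °C growth from 5 μL central inoculum. E. coli plates: LB, 0.6% agar, 0.5% glucose; P. aeruginosa plates: M8 agar plus 0.2% glucose, 100 μM CaCl2, 1 mM MgSO4, 0.5% Casamino acids.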

Another assay concerns E. coli biofilms. Briefly: Biofilm growth assay (spreading biofilm on semi-solid agar), E. coli. In kind it is cell-based. As to conditions: biofilm growth assay, overnight 37° C., vs negative controls, Tables 1-5; for IC85: Escherichia coli, read-out: E. coli: concentration that reduces the area of the spreading biofilm by greater than or equal to 85%. Summed up: as §1

≈ marks a conversion by molar mass, not a printed value.

For `CN(C)CCc1c([C@]23CCC(C)(C)CC2C2=CCC4[C@@]5(C)Cc6c(n[nH]c6N)C(C)(C)C5CC[C@@]4(C)[C@]2(C)CC3)n[nH]c1O` (stereo partly drawn) [Compound 85, 3-((4aS,6aS,6bR,13aR)-12-Amino-2,2,6a,6b,9,9,13a-heptamethyl-2,3,4,4a,5,6,6a,6b,7,8,8a,9,11,13,13a,13b,14,15b-octadecahydro-1H-chryseno[1,2-f]indazol-4-a-yl)-4-(2-(dimethylamino)ethyl)-1H-pyrazol-5-ol], in the assay with P. aeruginosa biofilms, the “P. aeruginosa: concentration that reduces the area of the spreading biofilm by greater than or equal to 85%” value came to 0.5 µg/mL. Also, the “E. coli: concentration that reduces the area of the spreading biofilm by greater than or equal to 85%” value in the assay with E. coli biofilms was 1 µg/mL.
`Cc1nnc(S)n1NC(=O)[C@]12CCC(C)(C)CC1C1=CCC3[C@@]4(C)Cc5c(n[nH]c5N)C(C)(C)C4CC[C@@]3(C)[C@]1(C)CC2` (stereo partly drawn) [Compound 77, (4aS,6aS,6bR,13aR)-12-Amino-N-(3-mercapto-5-methyl-4H-1,2,4-triazol-4-yl)-2,2,6a,6b,9,9,13a-heptamethyl-2,3,4,4a,5,6,6a,6b,7,8,8a,9,11,13,13a,13b,14,15b-octadecahydro-1H-chryseno[1,2-f]indazole-4-a-carboxamide]: the IC85 in the assay with P. aeruginosa biofilms worked out at 1 µg/mL (≈ 1.65 µM); with E. coli biofilms, 2 µg/mL (≈ 3.3 µM).
As for `CC1(C)CC[C@]2(CN)CC[C@]3(C)C(=CCC4[C@@]5(C)Cc6c(n[nH]c6N)C(C)(C)C5CC[C@]43C)C2C1` (stereo partly drawn) [Compound 63, (4aS,6aS,6bR,13aR)-4-a-(Aminomethyl)-2,2,6a,6b,9,9,13a-heptamethyl-2,3,4,4a,5,6,6a,6b,7,8,8a,9,11,13,13a,13b,14,15b-octadecahydro-1H-chryseno[1,2-f]indazol-12-amine], the IC85 in the assay with P. aeruginosa biofilms turned out to be 4 µg/mL (≈ 8.35 µM); in the assay with E. coli biofilms it was 1 µg/mL (≈ 2.09 µM).
On the same counts, the results for `C[C@H]1[C@H](C)CC[C@]2(C(=O)O)CC[C@]3(C)C(=CCC4[C@@]5(C)Cc6c(n[nH]c6N)C(C)(C)[C@@H]5CC[C@]43C)[C@H]12` (stereo partly drawn) [Example 2, (4aS,6aS,6bR,13aR)-12-Amino-2,2,6a,6b,9,9,13a-heptamethyl-2,3,4,4a,5,6,6a,6b,7,8,8a,9,11,13,13a,13b,14,15b-octadecahydro-1H-chryseno[1,2-f]indazole-4-a-carboxylic acid] are 0.5 µg/mL (≈ 1.01 µM) and 1 µg/mL (≈ 2.03 µM).
In the same order, the values of `CC1(C)CC[C@]2(C(=O)Nc3nnc(S)s3)CC[C@]3(C)C(=CCC4[C@@]5(C)Cc6c(n[nH]c6N)C(C)(C)C5CC[C@]43C)C2C1` (stereo partly drawn) [Compound 74, (4aS,6aS,6bR,13aR)-12-Amino-N-(5-mercapto-1,3,4-thiadiazol-2-yl)-2,2,6a,6b,9,9,13a-heptamethyl-2,3,4,4a,5,6,6a,6b,7,8,8a,9,11,13,13a,13b,14,15b-octadecahydro-1H-chryseno[1,2-f]indazole-4-a-carboxamide] are 1 µg/mL (≈ 1.64 µM) and > 2 µg/mL.
As to `Cc1ccc(C2=C3C4CC(C)(C)CC[C@]4(C(=O)O)CC[C@@]3(C)[C@]3(C)CCC4C(C)(C)c5n[nH]c(N)c5C[C@]4(C)C3C2)cc1N` (stereo partly drawn) [Example 20, (4aS,6aS,6bR,13aR)-12-Amino-15-(3-amino-4-methylphenyl)-2,2,6a,6b,9,9,13a-heptamethyl-2,3,4,4a,5,6,6a,6b,7,8,8a,9,11,13,13a,13b,14,15b-octadecahydro-1H-chryseno[1,2-f]indazole-4-a-carboxylic acid], in the assay with P. aeruginosa biofilms, the “P. aeruginosa: concentration that reduces the area of the spreading biofilm by greater than or equal to 85%” value was 0.5 µg/mL. Further, in the assay on E. coli biofilms, the “E. coli: concentration that reduces the area of the spreading biofilm by greater than or equal to 85%” value is 2 µg/mL.
On the same counts, the results for `CC1(C)CC[C@]2(C(=O)O)CC[C@]3(C)C(=C(c4ccc5[nH]ccc5c4)CC4[C@@]5(C)Cc6c(n[nH]c6N)C(C)(C)C5CC[C@]43C)C2C1` (stereo partly drawn) [Example 49, (4aS,6aS,6bR,13aR)-12-Amino-15-(1H-indol-5-yl)-2,2,6a,6b,9,9,13a-heptamethyl-2,3,4,4a,5,6,6a,6b,7,8,8a,9,11,13,13a,13b,14,15b-octadecahydro-1H-chryseno[1,2-f]indazole-4-a-carboxylic acid] are 0.5 µg/mL and >1 µg/mL.
With `CC1(C)CC[C@]2(C(=O)O)CC[C@]3(C)C(=C(c4cccc5[nH]ccc45)CC4[C@@]5(C)Cc6c(n[nH]c6N)C(C)(C)C5CC[C@]43C)C2C1` (stereo partly drawn) [Example 48, (4aS,6aS,6bR,13aR)-12-Amino-15-(1H-indol-4-yl)-2,2,6a,6b,9,9,13a-heptamethyl-2,3,4,4a,5,6,6a,6b,7,8,8a,9,11,13,13a,13b,14,15b-octadecahydro-1H-chryseno[1,2-f]indazole-4-a-carboxylic acid], the “P. aeruginosa: concentration that reduces the area of the spreading biofilm by greater than or equal to 85%” value in the assay with P. aeruginosa biofilms came out at 0.5 µg/mL. Moreover, in the assay with E. coli biofilms, the “E. coli: concentration that reduces the area of the spreading biofilm by greater than or equal to 85%” value is 1 µg/mL.
In the case of `CC1(C)CC[C@]2(C(=O)O)CC[C@]3(C)C(=CCC4[C@@]5(C)Cc6cc[nH]c6C(C)(C)C5CC[C@]43C)C2C1` (stereo partly drawn) [C], the IC85 in the assay on P. aeruginosa biofilms and in the assay on E. coli biofilms was 0.5 µg/mL (≈ 1.05 µM) in each case.
For `C[C@@H]1CC[C@]2(C(=O)O)CC[C@]3(C)C(=CCC4[C@@]5(C)C[C@H](CO)[C@H](O)C(C)(C)C5CC[C@]43C)C2[C@H]1C` (stereo partly drawn) [B], in the assay on P. aeruginosa biofilms, the “P. aeruginosa: concentration that reduces the area of the spreading biofilm by greater than or equal to 85%” value came out at 4 µg/mL. The “E. coli: concentration that reduces the area of the spreading biofilm by greater than or equal to 85%” value with E. coli biofilms was 8 µg/mL.
For the compound `CNCCc1c([C@]23CCC(C)(C)CC2C2=CCC4[C@@]5(C)Cc6c(n[nH]c6N)C(C)(C)C5CC[C@@]4(C)[C@]2(C)CC3)n[nH]c1O` (stereo partly drawn) [Compound 86, 3-((4aS,6aS,6bR,13aR)-12-Amino-2,2,6a,6b,9,9,13a-heptamethyl-2,3,4,4a,5,6,6a,6b,7,8,8a,9,11,13,13a,13b,14,15b-octadecahydro-1H-chryseno[1,2-f]indazol-4-a-yl)-4-(2-(methylamino)ethyl)-1H-pyrazol-5-ol], in the assay on P. aeruginosa biofilms, the “P. aeruginosa: concentration that reduces the area of the spreading biofilm by greater than or equal to 85%” value was determined as 0.5 µg/mL. Further, the “E. coli: concentration that reduces the area of the spreading biofilm by greater than or equal to 85%” value in the assay with E. coli biofilms was determined as 2 µg/mL.
As for `CN1CCN(Cc2occc2C2=C3[C@@H]4CC(C)(C)CC[C@]4(C(=O)O)CC[C@@]3(C)[C@]3(C)CC[C@H]4C(C)(C)c5n[nH]c(N)c5C[C@]4(C)C3C2)CC1` (stereo partly drawn) [Example 36, (4aS,6aS,6bR,8aR,13aR,15bS)-12-Amino-2,2,6a,6b,9,9,13a-heptamethyl-15-(2-((4-methylpiperazin-1-yl)methyl)furan-3-yl)-2,3,4,4a,5,6,6a,6b,7,8,8a,9,11,13,13a,13b,14,15b-octadecahydro-1H-chryseno[1,2-f]indazole-4-a-carboxylic acid], the “P. aeruginosa: concentration that reduces the area of the spreading biofilm by greater than or equal to 85%” value with P. aeruginosa biofilms was >1 µg/mL. Further, in the assay with E. coli biofilms, the “E. coli: concentration that reduces the area of the spreading biofilm by greater than or equal to 85%” value stood at 2 µg/mL.
On the same counts, the results for `CC1(C)CC[C@]2(C(=O)O)CC[C@]3(C)C(=C(c4ccc(N)nc4)CC4[C@@]5(C)Cc6c(n[nH]c6N)C(C)(C)[C@@H]5CC[C@]43C)[C@@H]2C1` (stereo partly drawn) [Example 41, (4aS,6aS,6bR,8aR,13aR,15bS)-12-Amino-15-(6-aminopyridin-3-yl)-2,2,6a,6b,9,9,13a-heptamethyl-2,3,4,4a,5,6,6a,6b,7,8,8a,9,11,13,13a,13b,14,15b-octadecahydro-1H-chryseno[1,2-f]indazole-4-a-carboxylic acid] are 1 µg/mL and 2 µg/mL.
Regarding `CC1(C)CC[C@]2(C(=O)n3cnc(S)n3)CC[C@]3(C)C(=CCC4[C@@]5(C)Cc6c(n[nH]c6N)C(C)(C)C5CC[C@]43C)C2C1` (stereo partly drawn) [Compound 76, ((4aS,6aS,6bR,13aR)-12-Amino-2,2,6a,6b,9,9,13a-heptamethyl-2,3,4,4a,5,6,6a,6b,7,8,8a,9,11,13,13a,13b,14,15b-octadecahydro-1H-chryseno[1,2-f]indazol-4-a-yl)(3-mercapto-1H-1,2,4-triazol-1-yl)methanone], the IC85 with P. aeruginosa biofilms came to 0.5 µg/mL (≈ 0.867 µM); with E. coli biofilms, 2 µg/mL (≈ 3.47 µM).
`CC1(C)CC[C@]2(C(=O)O)CC[C@]3(C)C(=CCC4[C@@]5(C)Cc6c[nH]nc6C(C)(C)C5CC[C@]43C)C2C1` (stereo partly drawn) [D]: the figures for the IC85 in the assay with P. aeruginosa biofilms and in the assay with E. coli biofilms were 1 µg/mL (≈ 2.09 µM) and 4 µg/mL (≈ 8.36 µM), respectively.
Take `CC1(C)CC[C@]2(c3nnc(O)s3)CC[C@]3(C)C(=CCC4[C@@]5(C)Cc6c(n[nH]c6N)C(C)(C)C5CC[C@]43C)C2C1` (stereo partly drawn) [Compound 78, 5-((4aS,6aS,6bR,13aR)-12-Amino-2,2,6a,6b,9,9,13a-heptamethyl-2,3,4,4a,5,6,6a,6b,7,8,8a,9,11,13,13a,13b,14,15b-octadecahydro-1H-chryseno[1,2-f]indazol-4-a-yl)-1,3,4-thiadiazol-2-ol]: the “P. aeruginosa: concentration that reduces the area of the spreading biofilm by greater than or equal to 85%” value in the assay with P. aeruginosa biofilms is >1 µg/mL. For the same compound, in the assay on E. coli biofilms, the “E. coli: concentration that reduces the area of the spreading biofilm by greater than or equal to 85%” value is 1 µg/mL.
`CC1(C)CC[C@]2(c3cc(O)[nH]n3)CC[C@]3(C)C(=CCC4[C@@]5(C)Cc6c(n[nH]c6N)C(C)(C)[C@@H]5CC[C@]43C)[C@@H]2C1` (stereo partly drawn) [Compound 68, 3-((4aS,6aS,6bR,13aR)-12-Amino-2,2,6a,6b,9,9,13a-heptamethyl-2,3,4,4a,5,6,6a,6b,7,8,8a,9,11,13,13a,13b,14,15b-octadecahydro-1H-chryseno[1,2-f]indazol-4-a-yl)-1H-pyrazol-5-ol]: the IC85 in the assay with P. aeruginosa biofilms and in the assay on E. coli biofilms was 0.5 µg/mL (≈ 0.94 µM) throughout.
`CC1(C)CC[C@]2(C(=O)O)CC[C@]3(C)C(=C(c4ccccc4N)CC4[C@@]5(C)Cc6c(n[nH]c6N)C(C)(C)C5CC[C@]43C)C2C1` (stereo partly drawn) [Example 23, (4aS,6aS,6bR,13aR)-12-Amino-15-(2-aminophenyl)-2,2,6a,6b,9,9,13a-heptamethyl-2,3,4,4a,5,6,6a,6b,7,8,8a,9,11,13,13a,13b,14,15b-octadecahydro-1H-chryseno[1,2-f]indazole-4-a-carboxylic acid]: the IC85 in the assay on P. aeruginosa biofilms is 1 µg/mL (≈ 1.71 µM); in the assay on E. coli biofilms it was 2 µg/mL (≈ 3.42 µM).
